According to paper PMC9787607, “A Novel Protocol for the Synthesis of 1,2,4-Oxadiazoles Active against Trypanosomatids and Drug-Resistant Leukemia Cell Lines” (Tropical Medicine and Infectious Disease, 2022):

What was measured:
FEPS (K562/DNR) = test: MTT cytotoxicity to MDR CML cell line FEPS; format: cell-based, human; conditions: for RR (relative resistance) FEPS: (EC50 MDR cells)/(EC50 parental cells), FEPS/K562; for EC50: Homo sapiens, K562, 72 h, MTT
Method: (§1) The CML cell lines K562, Lucena-1 (K562/VCR), and FEPS (K562/DNR) were cultured in RPMI-1640 medium supplemented with 25 mM HEPES and 2 g L^−1 sodium bicarbonate adjusted to pH 7.4 with NaOH, 100 U penicillin and […] streptomycin. All media were supplemented with 10% FBS. Dr. Vivian M. Rumjanek (Instituto de Bioquímica Médica, UFRJ, Brazil) kindly donated Lucena-1 and FEPS cells. Briefly, K562 cells were exposed to increasing concentrations of the chemotherapeutic drugs vincristine sulfate (VCR) and daunorubicin hydrochloride (DNR) (both from Sigma-Aldrich), as described previously. Lucena-1 (K562/VCR) and FEPS (K562/DNR) cells were cultured in the presence of either 60 nM VCR or 500 nM DNR to maintain the MDR phenotypes. For subcultures, cells were harvested every three days followed by washing with cold FBS, and a final concentration of 2 × 10^4 cells mL^−1 was maintained at 37 °C in 5% CO2.
(§2) Cell viability was determined by the 3-(4,5-dimethylthiazol-2-yl)-2,5-diphenyltetrazolium (MTT) colorimetric assay. CML cells (2 × 10^4 cells·mL^−1) were incubated for 72 h at 37 °C, followed by treatment with compounds at a range of concentrations (100–1 μM). Negative controls were prepared with 0.5% DMSO. An MTT salt solution was added to each well to a final concentration of 0.5 g·L^−1, and plates were incubated at 37 °C in 5% CO2 for 3 h. After centrifugation, 200 μL DMSO was added to dissolve the dark-blue formazan crystals formed by MTT reduction. Absorbance was measured on a microplate reader at 570 nm, which is directly proportional to formazan contents and indicative of living cells.
(§3) The percent cell or parasite viability was calculated by the formula: % viability = [(A − P)/(N − P)] × 100, A = absorbance of specific well, P = positive control, N = negative control. Determination of half-maximal effective concentrations (EC50), calculated by logarithmic regression, and significance analysis (p < 0.05), using ANOVA and Dunnett’s test, by GraphPad Prism 7.0 software. The results are expressed as the mean and standard deviation (SD) of three independent experiments.

K562 = test: MTT cytotoxicity to CML cell line K562; format: cell-based; conditions: Homo sapiens, 72 h
Method: as §1, §2, §3

Lucena-1 (K562/VCR) = test: cells; format: cell-based, human; conditions: for RR (relative resistance) Lucena-1: (EC50 MDR cells)/(EC50 parental cells), Lucena-1/K562; for EC50: Homo sapiens, Lucena 1, 72 h, read-out: EC50 Lucena-1
Method: as §1, §2, §3

[1] = Cytotoxicity to BALB/c mouse total splenocytes (MTT); format: cell-based; conditions: male, total splenocytes (primary), 100 μM, 48 h, compared to the untreated control (Table S1)
Method: BALB/c mouse total splenocytes were harvested from male mice between 6–8 weeks old. After euthanasia, the spleens were removed and macerated in DMEM. After centrifugation, the cells were treated with hemolytic ACK buffer at 37 °C for 5 min. […] After incubation for 48 h at 37 °C in 5% CO2, cell viability was determined after the addition of 20 µL per well of a solution containing MTT salt (3.0 mM) and phenazine metasulphate (0.72 mM). After further incubation for 1 h at 37 °C, the medium was removed, and DMSO was added to dissolve the dark-blue formazan crystals formed by MTT reduction. Absorbance was measured on a microplate reader at 570 nm.
as §3

[2] = system: L. amazonensis promastigotes; test: Anti-L. amazonensis promastigote assessment (MTT); format: cell-based; conditions: Leishmania amazonensis; 48 h, MTT; read-out: EC50 L. amazonensis promastigotes
Method: Promastigotes of L. amazonensis (MHOM/BR/75/Josefa) were cultured in Schneider’s insect medium (SIM) with 10% FBS. Parasites were harvested at the stationary growth phase for assessment against promastigotes and 24 h after cultures reached the stationary growth phase for infection assays. […]. Complete SIM media and amphotericin B (AmB) at 10 µM were used as negative and positive controls, respectively. A vehicle control containing SIM with 10% SFB media and 0.3% DMSO was maintained for comparison. The final volume of the experiment was 100 µL. After incubation for 48 h at 27 °C, MTT salt solution in PBS was added (3.0 mM, 20 µL per well). After incubation for 2 h at 27 °C, the MTT formazan was dissolved by adding 120 µL of solubilizing buffer (50% isopropanol, 40% acetate buffer pH 5.4, 10% Triton-X). Absorbance was measured using a microplate reader at 570 nm.
as §3

[3] = system: T. cruzi amastigotes (Tulahuen C2C4 LacZ strain); test: microbe, parasite or virus in culture; format: cell-based, Trypanosoma cruzi; conditions: Trypanosoma cruzi, TULAHUEN, LLC-MK2, 120 h, screening at 50 μM, 120 h, compared with untreated controls
Method: To a monolayer of 1.0 × 10^7 LLC-MK2 cells in a 150 cm^2 culture flask were added 5.0 × 10^7 trypomastigotes of T. cruzi expressing the […] (Tulahuen C2C4 LacZ) in complete DMEM with 2.5% FBS. The infection was allowed to occur for 24 h, the supernatant was removed, and the cell monolayer was washed with PBS. Complete DMEM with 2.5% FBS was renewed every 2 days up to the sixth day after infection. Trypomastigote forms were collected daily from the supernatant between days 7 and 12 after infection, enriched by differential centrifugation (1500× g for 10 min, 5580× g for 20 min), and resuspended in complete DMEM with 5% FBS. Parasite density was determined by counting the mobile trypomastigotes on Neubauer chambers before use.
. The medium was renewed, and trypomastigote forms of T. cruzi (Tulahuen C2C4 LacZ strain, 2.0 × 10^5 parasites per well) were added. After incubation for 24 h at 37 °C in 5% CO2, the cell monolayer was washed with PBS to remove noninternalized parasites. DMEM without phenol red and 5% FBS was added, and infected cells were treated with compounds at a range of concentrations in triplicate (50 μM or 100–1 μM). Untreated infected cells and noninfected LLC-MK2 cells were used as negative and positive controls, respectively. Vehicle control containing DMEM without phenol red and 0.3% DMSO was maintained for comparison. After incubation for 120 h at 37 °C in 5% CO2, a solution containing […] and 0.8% IGEPAL CA-630 in PBS (30 µL per well), followed by further incubation for 2 h at 37 °C in 5% CO2. Absorbance was measured using a microplate reader at 570 nm.
as §3

[4] = Cytotoxicity to LLC-MK2 host cells (MTT); format: cell-based; conditions: rhesus monkey, LLC-MK2 cells (kidney fibroblasts); screening at 50 μM, 120 h
Method: LLC-MK2 kidney fibroblasts (ATCC) and RAW 264.7 macrophages (ATCC) were cultivated in culture flasks in complete DMEM with 5% FBS at 37 °C in 5% CO2. The LLC-MK2 cell monolayer was detached by treatment with trypsin-EDTA 0.05% for 5 min at 37 °C. The RAW cell monolayer was detached mechanically. In both cases, the cells were centrifuged at 480× g for 6 min and resuspended in complete DMEM with 5% FBS, and the cell density was determined by counting with trypan-blue dye exclusion on Neubauer chambers before use.
LLC-MK2 cells were seeded in a 96-well microplate (1.0 × 10^4 cells per well) in complete DMEM with 5% FBS (120 µL per well). After incubation for 24 h at 37 °C in 5% CO2, the medium was renewed, and compounds were added at a range of concentrations in triplicate (50 μM or 100–1 μM). Untreated cells and cells treated with DMEM and 10% DMSO were used as negative and positive controls, respectively. Vehicle control containing DMEM and 0.3% DMSO was maintained for comparison. After incubation for 120 h at 37 °C in 5% CO2, the medium was renewed, and MTT salt solution in PBS was added (3.0 mM, 20 µL per well). After incubation for 2 h at 37 °C in 5% CO2, the supernatant was removed, and MTT formazan was dissolved in DMSO (150 µL per well). Absorbance was measured using a microplate reader at 570 nm.
as §3

SMILES	RR (relative resistance) FEPS (FEPS (K562/DNR))	EC50 (FEPS (K562/DNR)) [µM]	EC50 (K562) [µM]	RR (relative resistance) Lucena-1 (Lucena-1 (K562/VCR))	EC50 (Lucena-1 (K562/VCR)) [µM]	viability at 48 h, 100 µM [1] [%]	EC50 [2] [µM]	viability at 50 µM [3] [%]	melting point [°C]	viability at 120 h, 50 µM [4] [%]
C(=C\c1nc(-c2ccccc2)no1)/c1ccc2c(c1)OCCO2 [Compound 14, (E)-3-phenyl-5-[2-(3,4-ethylenedioxy-phenyl)vinyl]-1,2,4-oxadiazole]	<0.41	41.1 ± 4.9	> 100	<0.64	64 ± 3.2	93.6 ± 5.9	92.5 ± 3.8	60.5 ± 3.8	143 to 145	84.5 ± 4.6
COc1ccc(/C=C/c2nc(-c3ccccc3)no2)cc1 [Compound 11, (E)-3-phenyl-5-[2-(4-methoxyphenyl)vinyl]-1,2,4-oxadiazole]	<0.59	58.8 ± 6.1	> 100	–	> 100	84.4 ± 2.9	> 100	86.2 ± 5.3	132 to 135	77.4 ± 4
C(=C\c1nc(-c2ccccc2)no1)/c1ccccc1 [Compound 9, (E)-3-phenyl-5-[2-phenylvinyl]-1,2,4-oxadiazole]	–	> 100	> 100	–	> 100	102 ± 7.4	74.5 ± 4.9	87 ± 4.9	–	87.2 ± 4
Clc1ccc(/C=C/c2nc(-c3ccccc3)no2)cc1 [Compound 19, (E)-3-phenyl-5-[2-(4-chlorophenyl)vinyl]-1,2,4-oxadiazole]	>2.12	> 100	47.1 ± 1.2	0.92	43.4 ± 3.4	90.5 ± 5.3	> 100	83.4 ± 5.9	–	77.8 ± 0.9
Fc1ccc(/C=C/c2nc(-c3ccccc3)no2)cc1 [Compound 18, (E)-3-phenyl-5-[2-(4-fluorophenyl)vinyl]-1,2,4-oxadiazole]	<0.67	66.7 ± 9.6	> 100	<0.59	59.9 ± 12.2	102 ± 11.5	> 100	82.8 ± 4.7	–	90.7 ± 4.3
COc1cc(-c2noc(/C=C/c3ccccc3)n2)cc(OC)c1OC [Compound 21, (E)-3-(3,4,5-trimethoxyphenyl)-5-[2-phenylvinyl]-1,2,4-oxadiazole]	<0.28	27.7 ± 5.2	> 100	<0.69	68.6 ± 10.1	76.8 ± 6.6	> 100	77.3 ± 2	138 to 140	88.5 ± 4.7
O=[N+]([O-])c1ccc(/C=C/c2nc(-c3ccccc3)no2)cc1 [Compound 20, (E)-3-phenyl-5-[2-(4-nitrophenyl)vinyl]-1,2,4-oxadiazole]	1.35	46.4 ± 4.9	34.4 ± 7.4	1.33	45.7 ± 4.3	77.8 ± 4.2	> 100	74.5 ± 5.4	205 to 208	78.2 ± 2.1
COc1cccc(/C=C/c2nc(-c3cc(OC)c(OC)c(OC)c3)no2)c1 [Compound 22, (E)-3-(3,4,5-trimethoxyphenyl)-5-[2-(3-methoxyphenyl)-vinyl]-1,2,4-oxadiazole]	<0.36	36.1 ± 12.4	> 100	<0.73	72.9 ± 3	63.5 ± 2.4	> 100	66.1 ± 2.3	117 to 119	87.1 ± 1.7
